Values joined by “and” are separate entries in the source; they are usually repeats but may differ in a detail not shown here. Equal entries are not always repeated. Toxic doses and inconclusive results are not listed. Rule for the calls: active = survival T/C of 150% or more; inactive = T/C below 125% in these data.
Tested on: P388 leukemia ip, CD2F1 mice, survival T/C
Assay: NCI In Vivo Anticancer Drug Screen. Data for tumor model P388 Leukemia (intraperitoneal) in CD2F1 (CDF1) mice
Conditions: endpoint: median survival time, higher = longer survival
In short: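 Mice carrying the transplanted tumor received test compound or vehicle. Survival was recorded in each group, and the value is the treated-group measurement divided by that of the vehicle-treated control group.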

[1] = dose: 50.0 mg/kg/injection, schedule: Q01DX005 (ip), vehicle: Klucel (hydroxypropylcellulose) (HPC)
[2] = dose: 100.0 mg/kg/injection, schedule: Q01DX005 (ip), vehicle: Klucel (hydroxypropylcellulose) (HPC)
[3] = dose: 50.0 mg/kg/injection, schedule: Q01DX009 (ip), vehicle: saline with Tween-80
[4] = dose: 100.0 mg/kg/injection, schedule: Q01DX009 (ip), vehicle: saline with Tween-80
[5] = dose: 200.0 mg/kg/injection, schedule: Q01DX009 (ip), vehicle: saline with Tween-80
[6] = dose: 25.0 mg/kg/injection, schedule: Q01DX005 (ip), vehicle: Klucel (hydroxypropylcellulose) (HPC)
[7] = dose: 200.0 mg/kg/injection, schedule: Q01DX005 (ip), vehicle: Klucel (hydroxypropylcellulose) (HPC)

Measured: T/C

NC(=O)c1nn(C2OC(CO)C(O)C2O)c2ncnc(N)c12 (stereo not given)
active: dose: 3.0 mg/kg/injection, schedule: Q01DX009 (ip), vehicle: Klucel (hydroxypropylcellulose) (HPC) 152 % of control | dose: 6.0 mg/kg/injection, schedule: Q01DX009 (ip), vehicle: Klucel (hydroxypropylcellulose) (HPC) 190 % of control

NC(=S)N/N=C\C(CC(O)C(O)CO)=N\NC(N)=S (stereo not given)
inactive: dose: 50.0 mg/kg/injection, schedule: Q01DX005 (ip), vehicle: saline with Tween-80 89 % of control | dose: 100.0 mg/kg/injection, schedule: Q01DX005 (ip), vehicle: saline with Tween-80 95 % of control | dose: 200.0 mg/kg/injection, schedule: Q01DX005 (ip), vehicle: saline with Tween-80 98 % of control

Cn1c(=O)oc2cc([N+](=O)[O-])c(Cl)cc21
inactive: [1] 95 % of control | [2] 92 % of control

O=C1O/C(=C\c2ccccc2)c2c(Br)c(Br)c(Br)c(Br)c21
inactive: [3] 94 % of control | [4] 93 % of control | [5] 99 % of control | dose: 400.0 mg/kg/injection, schedule: Q01DX009 (ip), vehicle: saline with Tween-80 99 % of control

c1ccc2c(c1)oc1cc3c(cc12)nnc1cccn13
inactive: [6] 100 % of control | [1] 96 % of control | [2] 92 % of control | [7] 86 % of control

CN1C(=O)Cn2c(nn(Cc3ccccc3)c(=O)c2=O)-c2cc(Cl)ccc21
inactive: dose: 100.0 mg/kg/injection, schedule: Q01DX001 (ip), vehicle: Klucel (hydroxypropylcellulose) (HPC) 96 % of control | dose: 200.0 mg/kg/injection, schedule: Q01DX001 (ip), vehicle: Klucel (hydroxypropylcellulose) (HPC) 101 % of control | dose: 400.0 mg/kg/injection, schedule: Q01DX001 (ip), vehicle: Klucel (hydroxypropylcellulose) (HPC) 99 % of control

COc1ccc(N=NC2C(=O)N(C(=O)c3ccncc3)N=C2C)cc1 (stereo not given)
inactive: [3] 95 % of control | [4] 95 % of control | [5] 96 % of control

O=C1c2cc([N+](=O)[O-])cc3cc([N+](=O)[O-])cc(c23)C(=O)N1CCN1CCN(CCN2C(=O)c3cc([N+](=O)[O-])cc4cc([N+](=O)[O-])cc(c34)C2=O)CC1
inactive: dose: 100.0 mg/kg/injection, schedule: Q04DX002 (ip), vehicle: saline with Tween-80 100 % of control | dose: 200.0 mg/kg/injection, schedule: Q04DX002 (ip), vehicle: saline with Tween-80 97 % of control | dose: 400.0 mg/kg/injection, schedule: Q04DX002 (ip), vehicle: saline with Tween-80 94 % of control

CC(=O)Nc1ccc2c(c1)nc(-c1ccccn1)n2CCc1ccccn1
inactive: [6] 103 % of control | [1] 102 % of control | [2] 102 % of control | [7] 102 % of control

O=C(O)/C(O)=C/c1ccccc1
inactive: dose: 25.0 mg/kg/injection, schedule: Q04DX003 (ip), vehicle: saline with Tween-80 102 % of control | dose: 200.0 mg/kg/injection, schedule: Q04DX003 (ip), vehicle: saline with Tween-80 111 % of control

C(=Nc1ccccc1-c1ccccc1N=Cc1ccccc1)c1ccccc1
inactive: dose: 1.56 mg/kg/injection, schedule: Q01DX009 (ip), vehicle: saline 100 % of control and 91 % of control | dose: 3.12 mg/kg/injection, schedule: Q01DX009 (ip), vehicle: saline 91 % of control | dose: 6.25 mg/kg/injection, schedule: Q01DX009 (ip), vehicle: saline with Tween-80 104 % of control | dose: 6.25 mg/kg/injection, schedule: Q01DX009 (ip), vehicle: saline 88 % of control and 93 % of control | dose: 25.0 mg/kg/injection, schedule: Q01DX009 (ip), vehicle: saline with Tween-80 86 % of control | dose: 100.0 mg/kg/injection, schedule: Q01DX009 (ip), vehicle: saline 96 % of control | dose: 200.0 mg/kg/injection, schedule: Q01DX009 (ip), vehicle: saline 89 % of control

CCC[CH2][Sn]([CH2]CCC)([O]S(=O)c1ccccc1)[O]S(=O)c1ccccc1 (stereo not given)
inactive: dose: 3.12 mg/kg/injection, schedule: Q01DX001 (ip), vehicle: saline with Tween-80 103 % of control | dose: 6.25 mg/kg/injection, schedule: Q01DX001 (ip), vehicle: saline with Tween-80 119 % of control

CS(=O)(=O)N/N=C(\N)Oc1ccc(Cl)cc1Cl
inactive: dose: 60.0 mg/kg/injection, schedule: Q01DX005 (ip), vehicle: saline with Tween-80 97 % of control | dose: 120.0 mg/kg/injection, schedule: Q01DX005 (ip), vehicle: saline with Tween-80 93 % of control | dose: 240.0 mg/kg/injection, schedule: Q01DX005 (ip), vehicle: saline with Tween-80 88 % of control

O=C1C=C(NCCC2CCCN3CCCCC23)C(=O)c2ccccc21 (stereo not given)
inactive: dose: 12.5 mg/kg/injection, schedule: Q01DX001 (ip), vehicle: Klucel (hydroxypropylcellulose) (HPC) 98 % of control | dose: 25.0 mg/kg/injection, schedule: Q01DX001 (ip), vehicle: Klucel (hydroxypropylcellulose) (HPC) 95 % of control | dose: 50.0 mg/kg/injection, schedule: Q01DX001 (ip), vehicle: Klucel (hydroxypropylcellulose) (HPC) 100 % of control

— PubChem BioAssay AID330 (DTP/NCI, 2004)
